Key:
[1] = system: human adipocytes; assay: Intracellular Ca2+ ([Ca2+]i) by fura-2 fluorometry in isolated human adipocytes; type: cell-based
Experimental: FIG. 2. Glibenclamide stimulation of [Ca^2+]i in isolated human adipocyte. [Ca^2+]i in isolated human adipocytes was determined fluorometrically as previously described (4,7). Briefly, the human adipocytes isolated as described above were incubated in DMEM medium overnight for cell recovery. Prior to [Ca^2+]i measurement, adipocytes were pre-incubated in serum-free medium for 2 hrs, rinsed with HBSS solution containing the following components in mM: NaCl 138, CaCl2 1.8, MgSO4 0.8, NaH2PO4 0.9, NaHCO3 4, glucose 20, glutamine 6, HEPES 20 and BSA 1%. Cells were then loaded with fura-2 acetoxymethyl ester (10 μM) in the same buffer for 45 min at 37° C. in the dark with continuous shaking. To remove extracellular dye, cells were rinsed with HBSS for 3 times and resuspended in this solution at a concentration of 2×10^5 cells/ml. [Ca^2+]i was measured using dual excitation (340 and 380 nm) and single emission (510 nm) fluorometry. Following the establishment of stable baseline, the response to glibenclamide (10 and 20 μM) was determined. Digitonin (25 μM) and Tris/EGTA (100 mM) were used to measure maximal and minimal fluorescence to calibrate the signals, and final [Ca^2+]i was then calculated by the equation of Grynkiewicz et al. (17). […] Glibenclamide (Glib) was added at time designated by the arrow. B. The dose-responsive effect of glibenclamide on [Ca^2+]i in human adipocytes. Glibenclamide was added at 10 and 20 µM at the indicated times. *p<0.05 vs. Control, **p<0.05 vs. 10 μM glibenclamide.
The functionality of the SUR1 receptor was determined with respect to calcium mobilization and small molecule effects. [Ca^2+]i response was measured fluorometrically in isolated human adipocytes using a standard method (2,16). Briefly, isolated human adipocytes were incubated in DMEM or any other suitable medium such as Ham's F-10, Modified Eagle's media plus 5-10% fetal calf serum overnight for cell recovery. Prior to [Ca^2+]i measurement, adipocytes were pre-incubated in serum-free medium for 2 hrs, rinsed with HBSS solution containing the following components in mM: NaCl 138, CaCl2 1.8, MgSO4 0.8, NaH2PO4 0.9, NaHCO3 4, glucose 20, glutamine 6, HEPES 20 and BSA 1%. Cells were then loaded with fura-2 acetoxymethyl ester (10 μM) in the same buffer for 30-60 min at 37° C. in dark with continuous shaking. To remove extracellular dye, cells were rinsed with HBSS for three times and resuspended in this solution at a concentration of 1-10×10^5 cells/ml. [Ca^2+]i was measured using dual excitation (340 and 380 nm) and single emission (510 nm) fluorometry. Following the establishment of stable baseline, the response to a SUR agonist such as glibenclamide (1-20 μM) can be determined. Digitonin (25 μM) and Tris/EGTA (100 mM) were used to measure maximal and minimal fluorescence to calibrate the signals, and final [Ca^2+]i was then calculated by a known method such as described in Grynkiewicz et al (17).
Correlation of lipolysis with flux of intracellular calcium ([Ca^2+]i) concentration is then performed. [Ca^2+]i is measured in primary adipocytes. For primary adipocytes, 3 ml of cells are resuspended in 6 ml of HBSS and fura-2/AM was loaded for 80 min at 37° C. Extracellular fura-2/AM is washed three times with HBSS by centrifugation. [Ca^2+]i levels are then measured fluorometrically in suspensions using dual excitation (340 and 380 nm)/single emission (510 nm) fluorometry and [Ca^2+]i is calculated by the computer in the fluorometer. As a control, after loading fura-2/AM cells are pretreated with nitrendipine (RBI, Natick, Mass.) (30 μM, final concentration) for 10 min at 37° C.

[2] = system: human adipocytes; assay: Triglyceride accumulation in human adipocytes; type: cell-based; details: control 28.2±4.5
Experimental: Human subcutaneous abdominal adipocytes were isolated from healthy patients undergoing cosmetic liposuction using methodology we have previously described. Briefly, the tissue was washed several times with Hank's Balanced Salt Solution, minced into small fragments and digested with type I collagenase (1 mg/mL) in a shaking water bath at 37° C. for 30-40 minutes. Cells were then filtered through a sterile nylon filter (500 μm mesh) and cultured in Dulbecco's Modified Eagle's Medium (DMEM) supplemented with 1% fetal bovine serum, 1% bovine serum albumin, 100 U/mL penicillin, 100 μg/mL streptomycin and 50 μg/mL gentamicin. Cells were subsequently cultured in suspension in sterile polypropylene flasks in a humidified 37° C./5% CO2 incubator. After one day, suspended (floating) adipocytes were transferred to fresh medium and maintained as a thin layer at the top of the culture medium to ensure access to nutrients. The cells were maintained for another 24 hours in this medium and then changed to fresh medium with the addition of SUR agonists (such as glibenclamide) for up to 48 hours with the compounds to be tested. Medium was changed every 24 hours, and cell viability was verified with trypan blue exclusion at the end of representative experiments.
Stimulation of fatty acid synthase and concomitant inhibition of lipolysis results in increased lipid accumulation in human adipocytes. Adipocytes were treated as described above, harvested, and their triglyceride content was analyzed and normalized for protein content. […] Thus, these calcium-stimulated biochemical activities will contribute to the development of adipocyte hypertrophy and potentially obesity.

[3] = target: rat adipocytes; details: read-out: KD of glibenclamide binding; cited from earlier work
[4] = system: FAS activity in human adipocytes; assay: Fatty acid synthase (FAS) activity in human adipocytes; type: cell-based; details: for fatty acid synthase activity: control 1.93±0.24
[5] = system: human preadipocytes; assay: Intracellular Ca2+ ([Ca2+]i) response in human preadipocytes; type: cell-based

COc1ccc(Cl)cc1C(=O)NCCc1ccc(S(=O)(=O)NC(=O)NC2CCCCC2)cc1 [glibenclamide]
[Ca2+]i response ([1]; 20 µM glibenclamide (FIG. 2A)): increase in intracellular calcium | [Ca2+]i response ([1]; 1-20 μM, dose-dependent manner): sustained increases | EC50 ([1]; Adipocyte, human adipocytes, read-out: EC50 for increase in intracellular free calcium): ~1 µM | maximum response of intracellular free calcium ([1]; graded doses, over a baseline of 190 nM): 388 ± 72 nM | triglyceride accumulation ([2]; 2 μM glibenclamide (dose-responsive series)): 46.1±6.3 μg/mg protein | triglyceride accumulation ([2]; 10 μM glibenclamide (dose-responsive series)): 58.0±3.4 μg/mg protein | Kd [3]: 1 to 3 µM | fatty acid synthase activity ([4]; 2 μM glibenclamide): 7.90±0.4 nmol/min/mg protein | increase in adipocyte FAS activity ([4]; 10 μM glibenclamide, 48 hr): 67% | FAS activity ([4]; 10 μM glibenclamide, 48 hr, control 0.692±0.052): 1.154±0.010 NADPH nM/min/mg protein | fatty acid synthase activity ([4]; 10 μM glibenclamide): 12.8 ± 0.6 nmol/min/mg | increased FAS activity from basal levels ([4]; SUR agonist such as glibenclamide, general description): 50%-500% | [Ca2+]i response [5]: did not exhibit any [Ca^2+]i response
